Laboratory results published in ChEMBL document CHEMBL5376002, “A Hybrid Antimicrobial Peptide Targeting Staphylococcus aureus with a Dual Function of Inhibiting Quorum Sensing Signaling and an Antibacterial Effect” (J Med Chem, 2023).
Converted amounts (≈) assume the structure as drawn. The source made the active and inactive calls. No cut-off for these calls is given here. Bridge positions count the residues as written; N and C are the ends. Square brackets hold non-standard residues; d marks the D form. Peptide text beside a SMILES is read from it. Dab = NCC[C@H](N)C(=O)O

Tests used:
Staphylococcus aureus [1] = test: Antibacterial activity against Staphylococcus aureus ATCC 6538p assessed as inhibition of bacterial growth incubated for 18 to 24 hrs; assay type: functional; conditions: time 18-24 hrs
Staphylococcus aureus [2] = test: Bactericidal activity against Staphylococcus aureus ATCC 6538p assessed as inhibition of bacterial growth incubated for 18 to 24 hrs; assay type: functional; conditions: time 18-24 hrs
Staphylococcus aureus [3] = test: Antibacterial activity against Staphylococcus aureus ATCC 12600 assessed as inhibition of bacterial growth incubated for 18 to 24 hrs; assay type: functional; conditions: time 18-24 hrs
Staphylococcus aureus [4] = test: Bactericidal activity against Staphylococcus aureus ATCC 12600 assessed as inhibition of bacterial growth incubated for 18 to 24 hrs; assay type: functional; conditions: time 18-24 hrs
Staphylococcus aureus [5] = test: Antibacterial activity against Staphylococcus aureus ATCC 43300 assessed as inhibition of bacterial growth incubated for 18 to 24 hrs; assay type: functional; conditions: time 18-24 hrs
Staphylococcus aureus [6] = test: Bactericidal activity against Staphylococcus aureus ATCC 43300 assessed as inhibition of bacterial growth incubated for 18 to 24 hrs; assay type: functional; conditions: time 18-24 hrs
[7] = system: Staphylococcus epidermidis; test: Antibacterial activity against Staphylococcus epidermidis ATCC 12228 assessed as inhibition of bacterial growth incubated for 18 to 24 hrs; assay type: functional; conditions: time 18-24 hrs
[8] = system: Staphylococcus epidermidis; test: Bactericidal activity against Staphylococcus epidermidis ATCC 12228 assessed as inhibition of bacterial growth incubated for 18 to 24 hrs; assay type: functional; conditions: time 18-24 hrs
Streptococcus pneumoniae [9] = test: Antibacterial activity against Streptococcus pneumoniae ATCC 49619 assessed as inhibition of bacterial growth incubated for 18 to 24 hrs; assay type: functional; conditions: time 18-24 hrs
Streptococcus pneumoniae [10] = test: Bactericidal activity against Streptococcus pneumoniae ATCC 49619 assessed as inhibition of bacterial growth incubated for 18 to 24 hrs; assay type: functional; conditions: time 18-24 hrs
[11] = system: Staphylococcus saprophyticus; test: Antibacterial activity against Staphylococcus saprophyticus ATCC BAA-750 assessed as inhibition of bacterial growth incubated for 18 to 24 hrs; assay type: functional; conditions: time 18-24 hrs
[12] = system: Staphylococcus saprophyticus; test: Bactericidal activity against Staphylococcus saprophyticus ATCC BAA-750 assessed as inhibition of bacterial growth incubated for 18 to 24 hrs; assay type: functional; conditions: time 18-24 hrs
Streptococcus mutans [13] = test: Antibacterial activity against Streptococcus mutans UA159 assessed as inhibition of bacterial growth incubated for 18 to 24 hrs; assay type: functional; conditions: time 18-24 hrs
Streptococcus mutans [14] = test: Antibacterial activity against Streptococcus mutans ATCC 25175 assessed as inhibition of bacterial growth incubated for 18 to 24 hrs; assay type: functional; conditions: time 18-24 hrs
Escherichia coli = test: Antibacterial activity against Escherichia coli ATCC 25922 assessed as inhibition of bacterial growth incubated for 18 to 24 hrs; assay type: functional; conditions: time 18-24 hrs
Cell membrane = test: Induction of cell membrane damage in Staphylococcus aureus ATCC 6538p assessed as increase in nucleic acid leakage measured up to 30 mins by UV-spectrophotometer analysis; assay type: subcellular
[15] = Toxicity in Kunming mouse infected with Staphylococcus aureus ATCC 6538p assessed as animal survival rate 5 mg/kg, ip pre-infected with bacteria for 1 hr followed by compound administration and measured after 7 days; assay type: organism-based; conditions: in vivo, 168 h, time 7 day
RAW264.7 [16] = test: Cytotoxicity against mouse RAW264.7 cells assessed as cell viability incubated for 48 hrs by MTT assay; assay type: functional
RAW264.7 [17] = test: Cytotoxicity against mouse RAW264.7 cells assessed as cell viability upto 125 uM incubated for 48 hrs by MTT assay; assay type: functional, cell-based
[18] = Binding affinity to AgrC-I extra-loop-I (unknown origin) assessed as dissociation constant incubated for 10 mins by isothermal titration calorimetry analysis
[19] = Binding affinity to AgrC-I extra-loop-II (unknown origin) assessed as dissociation constant incubated for 10 mins by isothermal titration calorimetry analysis
[20] = Binding affinity to AgrC-I extra-loop-III (unknown origin) assessed as dissociation constant incubated for 10 mins by isothermal titration calorimetry analysis
[21] = Binding affinity to AgrC-I extra-loop-I (unknown origin) assessed as change in enthalpy incubated for 10 mins by isothermal titration calorimetry analysis
[22] = Binding affinity to AgrC-I extra-loop-II (unknown origin) assessed as change in enthalpy incubated for 10 mins by isothermal titration calorimetry analysis
[23] = Binding affinity to AgrC-I extra-loop-III (unknown origin) assessed as change in enthalpy incubated for 10 mins by isothermal titration calorimetry analysis
Homo sapiens [24] = species on record: Homo sapiens; test: Binding affinity to AgrC-I extra-loop-I (unknown origin) assessed as gibbs free energy change incubated for 10 mins by isothermal titration calorimetry analysis
Homo sapiens [25] = species on record: Homo sapiens; test: Binding affinity to AgrC-I extra-loop-II (unknown origin) assessed as gibbs free energy change incubated for 10 mins by isothermal titration calorimetry analysis
Homo sapiens [26] = species on record: Homo sapiens; test: Binding affinity to AgrC-I extra-loop-III (unknown origin) assessed as gibbs free energy change incubated for 10 mins by isothermal titration calorimetry analysis
[27] = Inhibition of quorum sensing system in Staphylococcus aureus ATCC 6538p assessed as downregulation of RNAIII expression level incubated for 24 hrs by qRT-PCR analysis; conditions: dose 1-100 µM
[28] = Inhibition of quorum sensing system in Staphylococcus epidermidis ATCC 12228 assessed as downregulation of RNAIII expression level at 1 to 100 uM incubated for 24 hrs by qRT-PCR analysis; conditions: dose 1-100 µM
[29] = Inhibition of quorum sensing system in Staphylococcus saprophyticus ATCC BAA-750 assessed as downregulation of RNAIII expression level at 1 to 100 uM incubated for 24 hrs by qRT-PCR analysis; conditions: dose 1-100 µM
Staphylococcus aureus [30] = test: Antivirulence activity against Staphylococcus aureus assessed as downregulation of RNAIII expression level at 1 to 100 uM incubated for 24 hrs by qRT-PCR analysis; assay type: functional, organism-based; conditions: dose 1-100 µM
Staphylococcus aureus [31] = test: Antivirulence activity against Staphylococcus aureus assessed as downregulation of hla expression level at 1 to 100 uM incubated for 24 hrs by qRT-PCR analysis; assay type: functional, organism-based; conditions: dose 1-100 µM
Staphylococcus aureus [32] = test: Antivirulence activity against Staphylococcus aureus assessed as downregulation of psm-alpha expression level at 1 to 100 uM incubated for 24 hrs by qRT-PCR analysis; assay type: functional, organism-based; conditions: dose 1-100 µM
Erythrocyte = test: Hemolytic activity in rat RBC assessed as hemolysis measured after 20 hrs; assay type: toxicity, cell-based
Staphylococcus aureus [33] = test: Antivirulence activity against Staphylococcus aureus ATCC 6538p assessed as downregulation of RNAIII expression level at 2.5 uM measured for 28 passages by qRT-PCR analysis; assay type: functional, organism-based
Staphylococcus aureus [34] = test: Bactericidal activity against Staphylococcus aureus assessed as inhibition of bacterial growth at 31.25 uM incubated for 120 mins; assay type: functional, organism-based
Staphylococcus aureus [35] = test: Inhibition of biofilm formation in Staphylococcus aureus at 0.78 to 1.56 uM incubated for 24 hrs by crystal violet staining based analysis; assay type: functional, organism-based; conditions: dose 0.78-1.56 µM
Staphylococcus aureus [36] = test: Inhibition of biofilm formation in Staphylococcus aureus at 0.39 uM incubated for 24 hrs by crystal violet staining based analysis; assay type: functional, organism-based
Staphylococcus aureus [37] = test: Inhibition of biofilm formation in Staphylococcus aureus incubated for 24 hrs by crystal violet staining based microscopic analysis; assay type: functional, organism-based

Work on CN[C@H](CC(C)C)C(=O)N[C@H]1C(=O)N[C@@H](CC(N)=O)C(=O)N[C@H]2C(=O)N[C@H]3C(=O)N[C@H](C(=O)N[C@H](C(=O)O)c4cc(O)cc(O)c4-c4cc3ccc4O)[C@H](O)c3ccc(c(Cl)c3)Oc3cc2cc(c3O[C@@H]2O[C@H](CO)[C@@H](O)[C@H](O)[C@H]2O[C@H]2C[C@](C)(N)[C@H](O)[C@H](C)O2)Oc2ccc(cc2Cl)[C@H]1O [VANCOMYCIN] yielded an MIC (Staphylococcus aureus [1]) of 0.39 µM (≈ 0.565 µg/mL), an MBC (Staphylococcus aureus [2]) of 0.39 µM (≈ 0.565 µg/mL) and an MIC (Staphylococcus aureus [3]) of 0.39 µM (≈ 0.565 µg/mL). It also gave an MBC (Staphylococcus aureus [4]) of 0.39 µM (≈ 0.565 µg/mL), an MIC (Staphylococcus aureus [5]) of 0.39 µM (≈ 0.565 µg/mL) and an MBC (Staphylococcus aureus [6]) of 0.39 µM (≈ 0.565 µg/mL). For the same molecule, the MIC [7] was 0.39 µM (≈ 0.565 µg/mL), the MBC [8] was 0.39 µM (≈ 0.565 µg/mL) and the MIC (Streptococcus pneumoniae [9]) was 0.19 µM (≈ 0.275 µg/mL). It also gave an MBC (Streptococcus pneumoniae [10]) of 0.19 µM (≈ 0.275 µg/mL), an MIC [11] of 0.39 µM (≈ 0.565 µg/mL) and an MBC [12] of 0.39 µM (≈ 0.565 µg/mL). For the same molecule, the MIC (Streptococcus mutans [13]) was > 100 µM, the MIC (Streptococcus mutans [14]) was > 100 µM and the MIC (Escherichia coli) was > 100 µM. For the same molecule, the Activity (Cell membrane) was “inactive” and the Activity [15] was 90%.
For CC[C@H](C)[C@H](NC(C)=O)C(=O)N[C@@H](CC(N)=O)C(=O)N[C@H]1CCNC(=O)[C@H](CC(C)C)NC(=O)[C@H](CC(C)C)NC(=O)[C@H](Cc2ccccc2)NC(=O)[C@H](C)NC1=O (Ac-IN[Dab]AFLL; lactam 3-C), the MIC (Staphylococcus aureus [1]) was > 100 µM, the MIC (Staphylococcus aureus [3]) was > 100 µM and the MIC (Staphylococcus aureus [5]) was > 100 µM. For the same molecule, the MIC [7] was > 100 µM, the MIC (Streptococcus pneumoniae [9]) was > 100 µM and the MIC [11] was > 100 µM. For the same molecule, the MIC (Streptococcus mutans [13]) was > 100 µM, the MIC (Streptococcus mutans [14]) was > 100 µM and the MIC (Escherichia coli) was > 100 µM. For the same molecule, the CC50 (RAW264.7 [16]) was > 125 µM, the Activity (RAW264.7 [17]) was “inactive” and the Kd [18] was 1 pM. The Kd [19] was 2320 µM, the Kd [20] was 0.137 µM and the deltaH [21] was -5.98 kJ/mol. The deltaH [22] was -219 kJ/mol, the deltaH [23] was 0.356 kJ/mol and the deltaG (Homo sapiens [24]) was -68.6 kJ/mol. The deltaG (Homo sapiens [25]) was -15.1 kJ/mol, the deltaG (Homo sapiens [26]) was -39.2 kJ/mol and the inhibition [27] was “Dose-Dependent Effect”. The inhibition [28] was “inactive”, the inhibition [29] was “inactive” and the Activity (Staphylococcus aureus [30]) was “Active”. For the same molecule, the Activity (Staphylococcus aureus [31]) was “Active”, the Activity (Staphylococcus aureus [32]) was “Active” and the Activity (Erythrocyte) was “Toxic”. The Activity (Staphylococcus aureus [33]) was “Active”, the Activity (Staphylococcus aureus [34]) was “inactive” and the inhibition (Staphylococcus aureus [35]) was “Active”. For the same molecule, the inhibition (Staphylococcus aureus [36]) was “Active” and the inhibition (Staphylococcus aureus [37]) was “Active”.
